Laboratory results published in patent EP0441226A1, “(cyanomethyl)pyridines useful as PAF antagonists” (J. URIACH & CIA. S.A., priority 1990, dated 1991).
Structures can show the parent of a compound that is named as a salt. Where two headings read alike, the source gives them in different places.

System: hypotension induced by PAF
Experiment: Inhibition of the hypotensive effect induced by PAF in normotense rats
Type: in vivo, Sprage Dawley rats
Conditions: Rattus norvegicus, iv
[1] = i.v. (femoral vein) 3 min before PAF 0.5 mcg/Kg i.v., anesthetized male rats, mean arterial pressure, read-out: ID50 (the source's name)

Description: Inhibition of the hypotensive effect induced by PAF in normotense rats.
Male Sprage Dawley rats, of 180-220 g of weight, anesthetized with sodium pentobarbital (50 mg/Kg, i.p. 1 mU100 g) have been used. In order to measure the average arterial pressure, a polyethylene catheter is introduced into the carotid artery. The arterial pressure is recorded with the help of a transducer connected with a R611 Beckman polygraph. The tested compounds are administered through the femoral vein 3 min. before the injection of PAF (0.5 mcg/Kg, i.v.).

| SMILES | ED50 [1] [mg/kg] | ED50 (read-out: ID50) [mg/kg] |
| --- | --- | --- |
| Cl.Cl.N#CC(c1cccnc1)N1CCN(C(=O)c2ccc3ccccc3c2)CC1 (stereo not shown) [Compound 1, 1-(2-Naphthoyl)-4-(3-pyridylcyanomethyl)piperazine, dihydrochloride] | 5 |  |
| N#CC(c1cccnc1)N1CCN(C(=O)Cc2cccc3ccccc23)CC1 (stereo not shown) [Compound 2, 1-(1-Naphthylacetyl)-4-(3-pyridylcyanomethyl)piperazine] |  | 1.3 |
| N#CC(c1cccnc1)N1CCN(C(=O)Cc2ccccc2)CC1 (stereo not shown) [Compound 5, 1-(Phenylacetyl)-4-(3-pyridylcyanomethyl)piperazine] |  | 1.5 |
| N#CC(c1cccnc1)N1CCN(C(=O)CCc2ccccc2)CC1 (stereo not shown) [Compound 6, 1-(3-Phenylpropanoyl)-4-(3-pyridylcyanomethyl)piperazine, dichlorhydrate] | 1.2 |  |
| N#CC(c1cccnc1)N1CCN(C(=O)CCCc2ccccc2)CC1 (stereo not shown) [Compound 7, 1-(4-Phenylbutanoyl)-4-(3-pyridylcyanomethyl)piperazine] | 5 |  |
| CC(C(=O)N1CCN(C(C#N)c2cccnc2)CC1)(c1ccccc1)c1ccccc1.Cl.Cl (stereo not shown) [Compound 8, 1-(2,2-Diphenylpropanoyl)-4-(3-pyridylcyanomethyl)piperazine, dihydrochloride] | 0.14 |  |
| Cl.Cl.N#CC(c1cccnc1)N1CCN(C(=O)C(c2ccccc2)c2ccccc2)CC1 (stereo not shown) [Compound 9, 1-(Diphenylacetyl)-4-(3-pyridylcyanomethyl)piperazine, dihydrochloride] | 0.11 |  |
| N#CC(c1cccnc1)N1CCN(C(=O)C(Cc2ccccc2)c2ccccc2)CC1 (stereo not shown) [Compound 10, 1-(2,3-Diphenylpropanoyl)-4-(3-pyridylcyanomethyl)piperazine] | 0.12 |  |
| N#CC(c1cccnc1)N1CCN(C(=O)C(CCc2ccccc2)c2ccccc2)CC1 (stereo not shown) [Compound 11, 1-(2,4-Diphenylbutanoyl)-4-(3-pyridylcyanomethyl)piperazine] | 0.73 |  |
| N#CC(c1cccnc1)N1CCN(C(=O)CC(c2ccccc2)c2ccccc2)CC1 (stereo not shown) [Compound 12, 1-(3,3-Diphenylpropanoyl)-4-(3-pyridylcyanomethyl)piperazine] | 0.016 |  |
| N#CC(c1cccnc1)N1CCN(C(=O)C(Cc2ccccc2)Cc2ccccc2)CC1 (stereo not shown) [Compound 13, 1-(2-Phenylmethyl-3-phenylpropanoyl)-4-(3-pyridylcyanomethyl) piperazine, dichlorhydrate] | 0.68 |  |
| CC(C(=O)N1CCN(C(C#N)c2cccnc2)CC1)c1ccccc1.Cl.Cl (stereo not shown) [Compound 14, 1-(2-Phenylpropanoyl)-4-(3-pyridylcyanomethyl)piperazine, dihydrochloride] | 0.26 |  |
| N#CC(c1cccnc1)N1CCN(C(=O)C=Cc2ccccc2)CC1 (stereo not shown) [Compound 15, 1-(3-Phenylpropenoyl)-4-(3-pyridylcyanomethyl)piperazine, dichlorhydrate] | 0.24 |  |
| N#CC(c1cccnc1)N1CCN(C(=O)C(=Cc2ccccc2)c2ccccc2)CC1 (stereo not shown) [Compound 16, 1-(2,3-Diphenylpropenoyl)-4(3-pyridylcyanomethyl)piperazine] | 0.17 |  |
| N#CC(c1cccnc1)N1CCN(C(=O)C=C(c2ccccc2)c2ccccc2)CC1 (stereo not shown) [Compound 17, 1-(3,3-Diphenylpropenoyl)-4-(3-pyridylcyanomethyl)piperazine] | 0.049 |  |
| CCCCCCCC(=O)N1CCN(C(C#N)c2cccnc2)CC1.Cl (stereo not shown) [Compound 19, 1-(Octanoyl)-4-(3-pyridylcyanomethyl)piperazine hydrochloride] | 1.2 |  |
| COc1cc(C(=O)N2CCN(C(C#N)c3cccnc3)CC2)cc(OC)c1OC.Cl.Cl (stereo not shown) [Compound 22, 1-(3,4,5-Trimethoxybenzoyl)-4-(3-pyridylcyanomethyl)piperazine, dihydrochloride] | 4.3 |  |
| COc1ccc(C(CC(=O)N2CCN(C(C#N)c3cccnc3)CC2)c2ccc(OC)cc2)cc1 (stereo not shown) [Compound 25, 1-(3,3-bis(4-methoxyphenyl)propanoyl)-4-(3-pyridylcyanomethyl) piperazine] | 0.19 |  |
| COc1ccc(C(=CC(=O)N2CCN(C(C#N)c3cccnc3)CC2)c2ccc(OC)cc2)cc1.Cl.Cl (stereo not shown) [Compound 26, 1-(3,3-bis(4-methoxyphenyl)propenoyl)-4-(3-pyridylcyanomethyl)piperazine, dihydrochloride] | 0.17 |  |

| SMILES | ED50 [1] [mg/kg] | ED50 (read-out: ID50) [mg/kg] |
| --- | --- | --- |
| Cl.Cl.N#CC(c1cccnc1)N1CCN(C(=O)C(O)c2ccccc2)CC1 (stereo not shown) [Compound 27, 1-(2-phenyl-2-hydroxyacetyl)-4-(3-pyridylcyanomethyl)piperazine, dihydrochloride] | 1.1 |  |
| N#CC(c1cccnc1)N1CCN(C(=O)CC(O)(c2ccccc2)c2ccccc2)CC1 (stereo not shown) [Compound 28, 1-(3,3-Diphenyl-3-hydroxypropanoyl)-4-(3-pyridylcyanomethyl)piperazine] | 0.061 |  |
| N#CC(c1ccncc1)N1CCN(C(=O)CC(O)(c2ccccc2)c2ccccc2)CC1 (stereo not shown) [Compound 29, 1-(3,3-Diphenyl-3-hydroxypropanoyl)-4-(4-pyridylcyanomethyl)piperazine] | 0.061 |  |
| Cl.Cl.N#CC(c1cccnc1)N1CCN(C(=O)OCC(c2ccccc2)c2ccccc2)CC1 (stereo not shown) [Compound 31, 1-((2,2-diphenylethoxy)carbonyl)-4-(3-pyridylcyanomethyl)piperazine, dihydrochloride] | 0.078 |  |
| Cl.Cl.Cl.N#CC(c1cccnc1)N1CCN(C(=O)Cc2c[nH]c3ccccc23)CC1 (stereo not shown) [Compound 33, 1-(3-indolylacetyl)-4-(3-pyridylcyanomethyl)piperazine, trihydrochloride] |  | 3.5 |
| Cl.Cl.Cl.N#CC(c1cccnc1)N1CCN(C(=O)CNc2cccc3ccccc23)CC1 (stereo not shown) [Compound 34, 1-(N-(1-naphthyl)aminoacetyl)-4-(3-pyridylcyanomethyl)piperazine, trihydrochloride] | 3 |  |
| N#CC(c1cccnc1)N1CCN(C(=O)CN(Cc2ccccc2)c2ccccc2)CC1 (stereo not shown) [Compound 38, 1-(N-benzyl-N-phenylaminoacetyl)-4-(3-pyridylcyanomethyl)piperazine] | 0.42 |  |
| N#CC(c1cccnc1)N1CCN(C(=O)CN(CCCc2ccccc2)Cc2ccccc2)CC1 (stereo not shown) [Compound 41, 1-(N-benzyl-N-(3-phenylpropyl)aminoacetyl)-4-(3-pyridylcyanomethyl) piperazine, trihydrochloride] | 1.5 |  |
| N#CC(c1cccnc1)N1CCN(C(=O)CNC(c2ccccc2)c2ccccc2)CC1 (stereo not shown) [Compound 44, 1-(N-(diphenylmethyl)aminoacetyl)-4-(3-pyridylcyanomethyl) piperazine, trihydrochloride] | 0.023 |  |
| CN(CC(=O)N1CCN(C(C#N)c2cccnc2)CC1)C(c1ccccc1)c1ccccc1 (stereo not shown) [Compound 45, 1-(N-diphenylmethyl-N-methylaminoacetyl)-4-(3-pyridylcyanomethyl) piperazine, trihydrochloride] | 0.33 |  |
| N#CC(c1cccnc1)N1CCN(C(=O)CNC(c2ccccc2)c2ccc(Cl)cc2)CC1 (stereo not shown) [Compound 46, 1-(N-(1-(4-chlorophenyl)-1-phenylmethyl)aminoacetyl)-4-(3-pyridylcyanomethyl) piperazine, trihydrochloride] | 0.13 |  |
| N#CC(c1cccnc1)N1CCN(C(=O)CCNC(c2ccccc2)c2ccccc2)CC1 (stereo not shown) [Compound 47, 1-(3-(N-(diphenylmethyl)amino)propanoyl)-4-(3-pyridylcyanomethyl) piperazine] | 0.025 |  |
| N#CC(c1ccncc1)N1CCN(C(=O)CCNC(c2ccccc2)c2ccccc2)CC1 (stereo not shown) [Compound 48, 1-(3-(N-(diphenylmethyl)amino)propanoyl)-4-(4-pyridylcyanomethyl)piperazine] | 0.037 |  |
| Cl.Cl.Cl.N#CC(c1cccnc1)N1CCN(C(=O)CN(Cc2ccccc2)Cc2ccccc2)CC1 (stereo not shown) [Compound 49, 1-(N,N-dibenzylaminoacetyl)-4-(3-pyridylcyanomethyl)piperazine, trihydrochloride] | 1.7 |  |
| Cl.Cl.Cl.N#CC(c1cccnc1)N1CCN(C(=O)CNC(Cc2ccccc2)c2ccccc2)CC1 (stereo not shown) [Compound 52, 1-(N-(1,2-diphenylethyl)aminoacetyl)-4-(3-pyridylcyanomethyl)piperazine, trihydrochloride] | 0.34 |  |
| N#CC(c1ccncc1)N1CCN(C(=O)CNC(=O)C(c2ccccc2)c2ccccc2)CC1 (stereo not shown) [Compound 57, 1-(N-(diphenylacetyl)aminoacetyl)-4-(4-pyridylcyanomethyl)piperazine] | 0.47 |  |
| N#CC(c1cccnc1)N1CCN(CCNC(=O)C(c2ccccc2)c2ccccc2)CC1 (stereo not shown) [Compound 62, 1-(2-(N-(diphenylacetyl)amino)ethyl)-4-(3-pyridylcyanomethyl)piperazine] | 0.29 |  |
| Cl.Cl.N#CC(c1ccncc1)N1CCN(C(=O)CC(c2ccccc2)c2ccccc2)CC1 (stereo not shown) [Compound 67, 1-(3,3-diphenylpropanoyl)-4-(4-pyridylcyanomethyl)piperazine, dihydrochloride] | 0.034 |  |
